Target: T1, LXRβ (Homo sapiens, UniProt P55055)
T1 construct: Co-transfection expression plasmids, comprising full-length LXRα (pCMX-h LXRα[…] or LXRβ (pCMX-hLXRβ)); expressed in transfected cells; host or cells: CV-1 African Green Monkey Kidney Cells
T1 sequence (P55055 1-460): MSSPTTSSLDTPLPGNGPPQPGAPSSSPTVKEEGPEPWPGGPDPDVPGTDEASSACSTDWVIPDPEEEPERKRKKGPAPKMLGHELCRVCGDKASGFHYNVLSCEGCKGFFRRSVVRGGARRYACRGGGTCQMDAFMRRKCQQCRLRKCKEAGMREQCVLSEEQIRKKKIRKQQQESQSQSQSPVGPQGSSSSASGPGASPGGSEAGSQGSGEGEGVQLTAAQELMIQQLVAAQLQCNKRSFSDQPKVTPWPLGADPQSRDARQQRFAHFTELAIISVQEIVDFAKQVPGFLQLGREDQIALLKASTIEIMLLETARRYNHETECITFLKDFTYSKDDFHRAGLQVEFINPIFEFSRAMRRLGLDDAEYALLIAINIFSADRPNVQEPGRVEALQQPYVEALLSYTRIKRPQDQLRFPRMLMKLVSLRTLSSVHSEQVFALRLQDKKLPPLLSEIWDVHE
T1 sequence (P19793 1-462 partner): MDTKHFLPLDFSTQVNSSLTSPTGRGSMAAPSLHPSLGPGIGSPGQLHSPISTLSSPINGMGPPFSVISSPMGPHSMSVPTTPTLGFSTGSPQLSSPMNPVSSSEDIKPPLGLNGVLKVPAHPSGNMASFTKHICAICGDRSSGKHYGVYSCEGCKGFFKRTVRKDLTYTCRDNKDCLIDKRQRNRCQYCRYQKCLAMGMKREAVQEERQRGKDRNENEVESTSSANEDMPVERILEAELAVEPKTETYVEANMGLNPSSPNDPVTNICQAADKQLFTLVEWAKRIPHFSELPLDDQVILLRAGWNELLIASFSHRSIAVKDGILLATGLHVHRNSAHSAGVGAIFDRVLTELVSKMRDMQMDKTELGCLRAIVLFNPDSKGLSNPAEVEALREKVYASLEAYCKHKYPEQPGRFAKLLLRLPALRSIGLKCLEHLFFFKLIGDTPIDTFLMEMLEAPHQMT
Experiment: Co-transfection assay (LXRE luciferase reporter), LXRβ
Format: cell-based
Conditions: for EC50: CV-1 cells transfected with pCMX-hLXRβ and LXREx1-Tk-Luciferase, 20 hours incubation; for Emax: LXRβ co-transfection, relative to high control 1-(2,4-difluorobenzyl)-2-oxo-6-(4-phenoxyphenyl)-4-(trifluoromethyl)-1,2-dihydropyridine-3-carbonitrile, read-out: % Efficacy
Procedure, shortened: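 CV-1 cells transiently co-transfected with full-length human LXRβ expression plasmid, LXREx1-Tk-luciferase reporter and β-galactosidase control, then exposed to compound for 20 h at 37 °C. Luciferase luminescence read; EC50 from 11-point, ½-log dose–response fit, efficacy relative to high-control agonist maximum.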

EC50	Emax	SMILES
26 nM	80%	Cc1cc(-c2cc(-c3cc(F)c(CO)c(S(C)(=O)=O)c3)ccc2-n2cc(C(F)(F)F)nc2C)n(-c2ccc(OC(F)F)cc2)n1 [Example 287, (3′-(1-(4-(difluoromethoxy)phenyl)-3-methyl-1H-pyrazol-5-yl)-3-fluoro-4′-(2-methyl-4-(trifluoromethyl)-1H-imidazol-1-yl)-5-(methylsulfonyl)biphenyl-4-yl)methanol]
74 nM	81%	Cc1nc(C(F)(F)F)cn1-c1ccc(-c2cc(F)c(CO)c(S(C)(=O)=O)c2)cc1-c1ccnn1-c1ccc(Cl)cc1 [Example 288, {3′-[1-(4-chlorophenyl)-1H-pyrazol-5-yl]-3-fluoro-5-(methylsulfonyl)-4′-[2-methyl-4-(trifluoromethyl)-1H-imidazol-1-yl]biphenyl-4-yl}methanol]
122 nM	75%	Cc1nc(C(F)(F)F)cn1-c1ccc(-c2cccc(S(C)(=O)=O)c2)cc1-c1ccnn1-c1ccc(OC(F)(F)F)cc1 [Example 289, 5-{3′-(methylsulfonyl)-4-[2-methyl-4-(trifluoromethyl)-1H-imidazol-1-yl]biphenyl-3-yl}-1-{4-[(trifluoromethyl)oxy]phenyl}-1H-pyrazole]
30 nM	43%	Cc1cc(-c2cc(-c3cc(F)c(CO)c(S(C)(=O)=O)c3)ccc2-n2cc(C(F)(F)F)nc2C)n(-c2ccc(Cl)cc2)n1 [Example 290, {3′-[1-(4-chlorophenyl)-3-methyl-1H-pyrazol-5-yl]-3-fluoro-5-(methylsulfonyl)-4′-[2-methyl-4-(trifluoromethyl)-1H-imidazol-1-yl]biphenyl-4-yl}methanol]
47 nM	69%	Cc1cc(-c2cc(-c3cccc(S(C)(=O)=O)c3)ccc2-n2cc(C(F)(F)F)nc2C)n(-c2ccc(OC(F)(F)F)cc2)n1 [Example 291, 3-methyl-5-{3′-(methylsulfonyl)-4-[2-methyl-4-(trifluoromethyl)-1H-imidazol-1-yl]biphenyl-3-yl}-1-{4-[(trifluoromethyl)oxy]phenyl}-1H-pyrazole]
65 nM	70%	Cc1nc(C(F)(F)F)cn1-c1ccc(-c2cc(F)c(CO)c(S(C)(=O)=O)c2)cc1-c1ccnn1-c1ccc(OC(F)(F)F)cc1 [Example 292, [3-fluoro-5-(methylsulfonyl)-4′-[2-methyl-4-(trifluoromethyl)-1H-imidazol-1-yl]-3′-(1-{4-[(trifluoromethyl)oxy]phenyl}-1H-pyrazol-5-yl)biphenyl-4-yl]methanol]
114 nM	97%	Cc1nc(C(F)(F)F)cn1-c1ccc(-c2cccc(S(C)(=O)=O)c2)cc1-c1ccnn1-c1ccc2c(c1)OC(F)(F)O2 [Example 293, 1-(2,2-difluorobenzo[d][1,3]dioxol-5-yl)-5-(4-(2-methyl-4-(trifluoromethyl)-1H-imidazol-1-yl)-3′-(methylsulfonyl)biphenyl-3-yl)-1H-pyrazole]
57 nM	87%	Cc1nc(C(F)(F)F)cn1-c1ccc(-c2cc(F)c(CO)c(S(C)(=O)=O)c2)cc1-c1ccnn1-c1ccc2c(c1)OC(F)(F)O2 [Example 294, (3′-(1-(2,2-difluorobenzo[d][1,3]dioxol-5-yl)-1H-pyrazol-5-yl)-3-fluoro-4′-(2-methyl-4-(trifluoromethyl)-1H-imidazol-1-yl)-5-(methylsulfonyl)biphenyl-4-yl)methanol]
40 nM	80%	Cc1nc(C(F)(F)F)cn1-c1ccc(-c2ccc(CO)c(S(C)(=O)=O)c2)cc1-c1ccnn1-c1ccc2c(c1)OC(F)(F)O2 [Example 295, (3′-(1-(2,2-difluorobenzo[d][1,3]dioxol-5-yl)-1H-pyrazol-5-yl)-4′-(2-methyl-4-(trifluoromethyl)-1H-imidazol-1-yl)-3-(methylsulfonyl)biphenyl-4-yl)methanol]
572 nM	75%	Cc1nc(C(F)(F)F)cn1-c1ccc(-c2cccc(S(C)(=O)=O)c2)cc1-c1ccnn1-c1ccc(Cl)nc1 [Example 296, 2-chloro-5-(5-(4-(2-methyl-4-(trifluoromethyl)-1H-imidazol-1-yl)-3′-(methylsulfonyl)biphenyl-3-yl)-1H-pyrazol-1-yl)pyridine]
351 nM	75%	Cc1nc(C(F)(F)F)cn1-c1ccc(-c2cc(F)c(CO)c(S(C)(=O)=O)c2)cc1-c1ccnn1-c1ccc(Cl)nc1 [Example 297, (3′-(1-(6-chloropyridin-3-yl)-1H-pyrazol-5-yl)-3-fluoro-4′-(2-methyl-4-(trifluoromethyl)-1H-imidazol-1-yl)-5-(methylsulfonyl)biphenyl-4-yl)methanol]
317 nM	71%	Cc1nc(C(F)(F)F)cn1-c1ccc(-c2ccc(CO)c(S(C)(=O)=O)c2)cc1-c1ccnn1-c1ccc(Cl)nc1 [Example 298, (3′-(1-(6-chloropyridin-3-yl)-1H-pyrazol-5-yl)-4′-(2-methyl-4-(trifluoromethyl)-1H-imidazol-1-yl)-3-(methylsulfonyl)biphenyl-4-yl)methanol]
17 nM	77%	Cc1cc(-c2cc(-c3cc(F)c(CO)c(S(C)(=O)=O)c3)ccc2-n2cc(C(F)(F)F)nc2C)n(-c2ccc3c(c2)OC(F)(F)O3)n1 [Example 299, (3′-(1-(2,2-difluorobenzo[d][1,3]dioxol-5-yl)-3-methyl-1H-pyrazol-5-yl)-3-fluoro-4′-(2-methyl-4-(trifluoromethyl)-1H-imidazol-1-yl)-5-(methylsulfonyl)biphenyl-4-yl)methanol]
12 nM	61%	Cc1cc(-c2cc(-c3ccc(CO)c(S(C)(=O)=O)c3)ccc2-n2cc(C(F)(F)F)nc2C)n(-c2ccc3c(c2)OC(F)(F)O3)n1 [Example 300, (3′-(1-(2,2-difluorobenzo[d][1,3]dioxol-5-yl)-3-methyl-1H-pyrazol-5-yl)-4′-(2-methyl-4-(trifluoromethyl)-1H-imidazol-1-yl)-3-(methylsulfonyl)biphenyl-4-yl)methanol]
49 nM	91%	Cc1cc(-c2cc(-c3cccc(S(C)(=O)=O)c3)ccc2-n2cc(C(F)(F)F)nc2C)n(-c2ccc(OC(F)F)cc2)n1 [Example 301, 1-(4-(difluoromethoxy)phenyl)-3-methyl-5-(4-(2-methyl-4-(trifluoromethyl)-1H-imidazol-1-yl)-3′-(methylsulfonyl)biphenyl-3-yl)-1H-pyrazole]
25 nM	81%	Cc1cc(-c2cc(-c3ccc(CO)c(S(C)(=O)=O)c3)ccc2-n2cc(C(F)(F)F)nc2C)n(-c2ccc(OC(F)F)cc2)n1 [Example 302, (3′-(1-(4-(difluoromethoxy)phenyl)-3-methyl-1H-pyrazol-5-yl)-4′-(2-methyl-4-(trifluoromethyl)-1H-imidazol-1-yl)-3-(methylsulfonyl)-[1,1′-biphenyl]-4-yl)methanol]
21 nM	68%	Cc1cc(-c2cc(-c3cc(O)c(CF)c(S(C)(=O)=O)c3)ccc2-n2cc(C(F)(F)F)nc2C)n(-c2ccc(OC(F)(F)F)cc2)n1 [Example 303, 4-(fluoromethyl)-3′-(3-methyl-1-(4-(trifluoromethoxy)phenyl)-1H-pyrazol-5-yl)-4′-(2-methyl-4-(trifluoromethyl)-1H-imidazol-1-yl)-5-(methylsulfonyl)-[1,1′-biphenyl]-3-ol]

Source: patent publication US9834542B2, “LXR modulators” (BRISTOL-MYERS SQUIBB COMPANY, priority 2013, dated 2017)
